Measured values: patent US20070264243A1, “REVERSIBLY IMMORTALIZED HEPATOCYTES AND METHODS OF USE” (priority 1999, published 2007)
Entries after “also recorded” stand apart in the source; their conditions may differ.

How the values were obtained:
[1] = system: NKNT-3 cells; experiment: MTT cytotoxicity assay; type: cell-based, human
Experimental: MTT Cytotoxicity Assays. Sensitivity of NKNT-3 cells to either 5 μM ganciclovir or G418 (500 μg/ml) was confirmed by 3-(4,5-dimethyl-2-thiazolyl)-2,5-diphenyl 2H-tetrazolium bromide (MTT) cytotoxicity assays. NKNT-3 cells were plated in a 96-well microplate at 5×10^3 cells per well to obtain a growth curve. On days 1, 3, 5, and 7, MTT (20 μg/ml) was added to a different well, incubated for 4 h, and then reacted with 150 μl of isopropanol for 10 min. Relative percentage of viability was determined by the ratio of absorbance at 570 and 630 nm with Bio-Rad EIA reader (Bio-Rad, Richmond, Calif.).

[2] = system: C8-B/Ras cells; experiment: Soft agar assay, sensitivity of colonies to gancyclovir; type: cell-based, rat
Experimental: Soft agar assay. To assay the capacity for anchorage independent growth, 5×10^4 cells were suspended in 2 ml of 0.3% Difco agar in IM and gently overlaid onto 60 mm dishes containing a lower layer of 0.5% agar. Cultures were fed every 5 to 7 days with a small amount of media. After 20 days of growth at 37° C., the dishes were stained with 0.5 mg/ml p-iodonitrotetrazolium violet (Sigma Chemical Co., St. Louis, Mo.), and macroscopically visible colonies (>100 μm in diameter) were scored. HepG2 cells were used as a positive control.

[3] = system: tumors in SCID mice; experiment: Tumor sensitivity to gancyclovir in tumor-bearing SCID mice; type: in vivo, mouse
Experimental: SCID mouse studies. The tumorigenicity of cell lines was assayed by subcutaneous injection of cells into the flanks of immunodeficient (SCID) mice. Cells were dislodged from monolayer culture with trypsin, washed, and suspended in PBS. SCID mice were inoculated subcutaneously with 1×10^6 cells per site. Animals were monitored every third day for the development of growth at the sites of injection. Animals were sacrificed at 24 weeks or when tumors reached 1 to 2 cm in diameter. Tumors were processed for routine histology and immunohistochemistry. To determine tumor sensitivity to treatment with gancyclovir, some animals were given a 0.2 ml intraperitoneal injection of gancyclovir (50 mg/kg) daily for 14 days when tumors reached 1-1.2 cm in size.

Row | SMILES | sensitivity of NKNT-3 cells to G418 ([1]; G418 500 μg/ml) | rare three-dimensional colonies after Ad-Cre infection, sensitivity to gancyclovir ([2]; C8-B/Ras cells after Ad-Cre infection) | C8-B/Ras soft agar colonies, sensitivity to gancyclovir ([2]; media containing 5 μM gancyclovir) | tumor recurrence ([3]; 4-week post-gancyclovir observation period) | tumor response by the end of gancyclovir treatment ([3]; gancyclovir 50 mg/kg, 14-day course) | time until tumors stopped growing ([3]; gancyclovir 50 mg/kg, 14-day course, tumors >1 cm) [days] | sensitivity of NKNT-3 cells to ganciclovir ([1]; 5 μM ganciclovir)
1 | CN[C@@H]1[C@@H](O)[C@@H](O[C@@H]2[C@@H](O)[C@H](O[C@H]3O[C@H]([C@@H](C)O)[C@@H](O)[C@H](O)[C@H]3N)[C@@H](N)C[C@H]2N)OC[C@]1(C)O [G418] | confirmed | – | – | – | – | – | –
2 | Nc1nc(O)c2ncn(COC(CO)CO)c2n1 [gancyclovir] | – | all were sensitive | could be eliminated | no tumor recurrence | could no longer be identified clinically or histologically; also recorded: complete regression of established tumors | ≤ 5 | confirmed
